Laboratory results reported in patent publication US11597702B2, “Substituted pyrazoles FFA4/GPR120 receptor agonists” (AXXAM S.P.A., priority 2018, dated 2023).

Target: T1, GPR120 (Homo sapiens, UniProt Q5NUL3)
T1 construct: expressed in transfected cells; host or cells: CHO mitoPhotinaGPR120 cells
T1 sequence (Q5NUL3 1-361): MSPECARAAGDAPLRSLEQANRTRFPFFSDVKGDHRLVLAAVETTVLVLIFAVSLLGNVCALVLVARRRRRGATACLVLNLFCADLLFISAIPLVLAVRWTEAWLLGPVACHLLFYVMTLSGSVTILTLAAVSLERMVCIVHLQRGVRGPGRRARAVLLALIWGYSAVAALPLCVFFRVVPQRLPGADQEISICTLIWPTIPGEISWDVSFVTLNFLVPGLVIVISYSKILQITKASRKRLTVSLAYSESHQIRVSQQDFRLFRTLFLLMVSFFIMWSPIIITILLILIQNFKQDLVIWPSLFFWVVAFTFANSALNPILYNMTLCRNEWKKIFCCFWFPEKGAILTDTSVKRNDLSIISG
Experiment: GPR120 agonism in CHO mitoPhotinaGPR120 cell based assay with fluorescent (Fluo-8 calcium, FLIPRTetra) readout, Agonist Mode, dose response
Settings: CHO mitoPhotinaGPR120 cells, Fluo-8 No Wash Ca2+ dye, dose response in quadruplicate, 0.0033% fatty acid free BSA

Structure (SMILES)	EC50 [µM]
Cc1nn(-c2ccccc2)c(COc2ccc(CCO)cc2)c1C#N [Example 6, 5-[[4-(2-hydroxyethyl)phenoxy]methyl]-3-methyl-1-phenyl-pyrazole-4-carbonitrile]	1.1
Cc1nn(-c2ccccc2)c(C(C)Oc2ccc(CCO)cc2)c1C#N (centres unmarked) [Example 92, 5-[1-[4-(2-hydroxyethyl)phenoxy]ethyl]-3-methyl-1-phenyl-pyrazole-4-carbonitrile]	3.66
CCc1ccccc1OCc1c(C#N)c(C)nn1-c1ccccc1 [Example 39, 5-[(2-ethylphenoxy)methyl]-3-methyl-1-phenyl-pyrazole-4-carbonitrile]	7.24

Results, then the compound that gave them:

EC50 [µM]	Structure (SMILES)
0.19	Cc1ccc(-n2nc(C)c(C#N)c2COc2ccc(CCCO)cc2)nc1 [Example 156, 5-[[4-(3-hydroxypropyl)phenoxy]methyl]-3-methyl-1-(5-methyl-2-pyridyl)pyrazole-4-carbonitrile]
0.21	Cc1nn(-c2ccc(F)cn2)c(COc2ccc(CCCO)cc2)c1C#N [Example 154, 1-(5-fluoro-2-pyridyl)-5-[[4-(3-hydroxypropyl)phenoxy]methyl]-3-methyl-pyrazole-4-carbonitrile]
3.22	Cc1nn(-c2ccc(C(F)(F)F)cc2)c(COc2ccc(CCO)cc2)c1C#N [Example 109, 5-[[4-(2-hydroxyethyl)phenoxy]methyl]-3-methyl-1-[4-(trifluoromethyl)phenyl]pyrazole-4-carbonitrile]
1.48	Cc1nn(-c2cccc(F)c2)c(COc2ccc(CCO)cc2)c1C#N [Example 101, 1-(3-fluorophenyl)-5-[[4-(2-hydroxyethyl)phenoxy]methyl]-3-methyl-pyrazole-4-carbonitrile]
0.17	Cc1ccc(-n2nc(C)c(C#N)c2COc2c(F)cc(CCCO)cc2F)nc1 [Example 165, 5-[[2,6-difluoro-4-(3-hydroxypropyl)phenoxy]methyl]-3-methyl-1-(5-methyl-2-pyridyl)pyrazole-4-carbonitrile]
